Read-outs that look alike come from different tables or passages of the source.
Test system: influenza virus (H3N2 type human vaccine New Caledonia strain)
Type: cell-based

hinokitiol copper complex
anti-influenza virus activity: ineffective
FFU (concentration 0.8 μg/ml): 280 FFU
FFU (concentration 4 μg/ml): Exfoliation
FFU (concentration 20 μg/ml): Exfoliation
FFU (concentration 100 μg/ml): Exfoliation

Reference: patent publication US20070266957A1 (priority 2004, published 2007)
